Results published in ChEMBL document CHEMBL1240319, “New approaches to molecular cancer therapeutics” (Nat Chem Biol, 2006).

Assay: Inhibition of HSP90

Row | IC50 | Compound
1 | 0.025 µM | CCNC(=O)c1n[nH]c(-c2cc(Cl)c(O)cc2O)c1-c1ccc(OC)cc1
2 | 9 µM | CCc1cc(-c2[nH]nc(C)c2-c2ccc3c(c2)OCCO3)c(O)cc1O
